Measured values taken from PMC7520419 (The AAPS Journal, 2020).
≈ marks a conversion by molar mass, not a printed value. Structures can show the parent of a compound that is named as a salt. Where two headings read alike, the source gives them in different places.

How the values were obtained:
BCS classification = format: physicochemical
[1] = cited from earlier work; for Solubility at pH 6.5: not generated within this working group, ref Table I
[2] = Effective human jejunum permeability (Peff,man) used in the PBPK model; format: in vitro ADME
Protocol: Permeation rates of the compounds, including reference compounds, were measured in the apical-to-basolateral (AB) direction. The donor and receiver wells were sampled immediately after application of the compound to the donor well to determine baseline concentrations, and again after 1 h. Quantification was done using high-performance liquid chromatography combined with mass spectrometry (HPLC-MS/MS) analysis and monolayer integrity was verified by analyzing the receiver samples for LuY fluorescence in a plate reader.

[3] = set-up: method as in Table I reference column; details: not generated within this working group; ref Table I; cited from earlier work
[4] = set-up: Food Effect (graded symbols): key to the marks not given beside the values; details: cited from earlier work
[5] = Solubility measurement in aqueous buffer solutions; details: for solubility: pH 6.5, aqueous buffer, thermodynamic from solid
Protocol: The solubility of the drug substances was determined in biorelevant media as well as in aqueous buffers at different pH. Fasted state simulated gastric fluid (FaSSGF) ([37]), fasted state simulated intestinal fluid (FaSSIF-V2) ([38]), and fed state simulated intestinal fluid (FeSSIF-V2) ([39]) were prepared according to the instructions provided by Biorelevant (Biorelevant.com Ltd., London, UK). […] For neutral compounds, solubility was determined at pH 2, pH 4, and pH 7.
For freely soluble compounds, the extent of solubilization was measured only up to 10 mg/mL.

[6] = PBPK food effect modeling (Simcyp V17.1 and/or GastroPlus V9.5; Model 1 / Model 2); set-up: species or system human
Caco-2 = details: cited from earlier work
[7] = Solubility measurement in biorelevant media (FaSSIF-V2, FeSSIF-V2); details: for solubility: 37 °C, thermodynamic from solid
[8] = Model 2, fasted, ref published clinical data (Table I)
[9] = Model 2, fed, ref published clinical data (Table I)
[10] = micronized formulation, healthy volunteers, high-fat breakfast
[11] = Model 2, ref published clinical data (Table I)
[12] = direction, AUC and/or Cmax ratio fed to fasted, BE criteria 0.8–1.25, ref drug label
[13] = not generated within this working group, ref Table I
[14] = Model 1, fasted, ref published clinical data (Table I)
[15] = Model 1, fed, ref published clinical data (Table I)
[16] = Model 1, ref published clinical data (Table I)
[17] = clinically observed PK change (AUC, Cmax) fed vs fasted, compiled by literature search

Row | Compound | BCS (BCS classification) | pKa (pKa; pKa (a, acidic)) | pKa (pKa; pKa (b, basic)) | Solubility at pH 6.5 [1] | Effective permeability ([2]; human, 1 h) [×10⁻⁶ cm/s] | FaSSIF solubility [3] | FeSSIF solubility [3] | Observed AUC(0-inf) Fasted [4, 8] [ng·h/mL] | Observed Cmax Fasted [4, 8] [ng/mL] | Observed AUC(0-inf) Fed [4, 9] [ng·h/mL] | Observed Cmax Fed [4, 9] [ng/mL] | solubility [5] [µg/mL] | Observed AUC Ratios (Fed/Fasted) [4, 11] | Observed Cmax Ratios (Fed/Fasted) [4, 11] | Food Effect [4, 12] | AUC Ratio of Ratios (Sim'd / Obs'd) ([6]; Model 1) | Cmax Ratio of Ratios (Sim'd / Obs'd) ([6]; Model 1) | AUC Ratio of Ratios (Sim'd / Obs'd) ([6]; Model 2) | Cmax Ratio of Ratios (Sim'd / Obs'd) ([6]; Model 2) | Apparent permeability (Caco-2) (Caco-2; [13]) | other results
1 | C[C@@H](O[C@H]1OCCN(Cc2n[nH]c(=O)[nH]2)[C@H]1c1ccc(F)cc1)c1cc(C(F)(F)F)cc(C(F)(F)F)c1 [Aprepitant] | II/IV | 9.15 | 2.45 | 0.7 μg/ml | 240 | 5.4 µg/mL | 92.4 µg/mL | 8570 | 496 | 24100 | 1100 | – | – | – | – | – | – | – | – | – | solubility in US Pharmacopeia Simulated Intestinal Fluids (SIFsp) ([1]; pH 6.8): 0.7 µg/mL (≈ 1.31 µM); solubility in water ([1]; pH 8.0, thermodynamically stable form): 7 µg/mL (≈ 13.1 µM); AUC observed, fasted ([4]; 100 mg micronized): 8571 ng·h/mL; AUC observed, fed ([4]; 100 mg micronized): 24,057 ng.h/ml; Cmax observed, fasted ([4]; 100 mg micronized): 496 ng/mL; Cmax observed, fed ([4]; 100 mg micronized): 1098 ng/mL; Food Effect ([4]; Micronized, fed vs fasted, compiled by literature search): Positive (positive if the ratio of fed > fasted); Food Effect ([4]; Nanonized, fed vs fasted, compiled by literature search): None (none if no significant change in AUC and Cmax with food); increase in AUC with food [4, 10]: 2.8 fold; increase in Cmax with food [4, 10]: 2.2 fold
2 | CC(C)(C)c1nc(-c2cccc(NS(=O)(=O)c3c(F)cccc3F)c2F)c(-c2ccnc(N)n2)s1 [Dabrafenib] | – | 6.6 | 2.2 | – | – | 6.2^^ μg/ml | 6.8^^ μg/ml | 12100 | 2160 | 8470 | 1070 | 1 (≈ 1.92 µM) | 0.70 | 0.49 | Negative (negative if ratio fasted > fed) | – | – | – | – | – | –
3 | NNC(=O)c1ccncc1 [Isoniazid] | – | – | 1.8 | – | 400 | – | – | 18500 | 5870 | 14800 | 2730 | 128000 (≈ 933000 µM) | 0.80 | 0.47 | Negative (negative if ratio fasted > fed) | 1.08 | 1.48 | 0.91 | 1.46 | 16 (Caco-2)^^ × 10^−6 cm/s | Observed AUC(0-inf) Fasted [4, 14]: 24600 ng·h/mL; Observed Cmax Fasted [4, 14]: 5000 ng/mL; Observed AUC(0-inf) Fed [4, 15]: 19500 ng·h/mL; Observed Cmax Fed [4, 15]: 2500 ng/mL; Observed AUC Ratios (Fed/Fasted) [4, 16]: 0.79; Observed Cmax Ratios (Fed/Fasted) [4, 16]: 0.50; Food Effect [4, 17]: Negative (negative if ratio fasted > fed)
4 | CCc1nn(CCCN2CCN(c3cccc(Cl)c3)CC2)c(=O)n1CCOc1ccccc1 [Nefazodone HCl] | – | – | – | – | 220 | – | – | 1540 | 301 | 1240 | 295 | 5380 | 0.80 | 0.98 | Negative (negative if ratio fasted > fed) | 0.97 | 0.84 | 1.47 | 1.05 | 11 (Caco-2) ^^ × 10^−6 cm/s | pKa (b, basic) (pKa): 6.50b; solubility ([7]; FaSSIF-V2 (fasted state simulated intestinal fluid), FaSSIF solubility): 1390 µg/mL; solubility ([7]; FeSSIF-V2 (fed state simulated intestinal fluid), FeSSIF solubility): 3100 µg/mL; Observed AUC(0-inf) Fasted [4, 14]: 1540 ng·h/mL; Observed Cmax Fasted [4, 14]: 301 ng/mL; Observed AUC(0-inf) Fed [4, 15]: 1240 ng·h/mL; Observed Cmax Fed [4, 15]: 295 ng/mL; Observed AUC Ratios (Fed/Fasted) [4, 16]: 0.80; Observed Cmax Ratios (Fed/Fasted) [4, 16]: 0.98; food effect (FE) direction ([4]; ref drug label): negative FE
5 | Cc1c(O)cccc1C(=O)N[C@@H](CSc1ccccc1)[C@H](O)CN1C[C@H]2CCCC[C@H]2C[C@H]1C(=O)NC(C)(C)C [Nelfinavir mesylate] | II/IV | – | 6 | 41.4^^ μg/ml | 70 | 22^^ μg/ml | 243^^ μg/ml | 7080 | 895 | 35800 | 3910 | – | 5.06 | 4.37 | Positive (positive if the ratio of fed > fasted) | – | – | 0.58 | 0.66 | – | Food Effect [4, 17]: Positive (positive if the ratio of fed > fasted); food effect (FE) direction ([4]; ref drug label): positive FE
6 | Cl.O=C1Cc2cc(CCN3CCN(c4nsc5ccccc45)CC3)c(Cl)cc2N1 [Ziprasidone HCl] | – | – | – | – | – | – | – | – | – | – | – | – | – | – | – | – | – | 1.05 | 0.88 | – | Solubility at pH 6.5 ([5]; room temperature): 1 μg/ml; Effective permeability [2]: 230 ×10⁻⁶ cm/s; Apparent permeability (Caco-2) (Caco-2; Caco-2): 12.3 (Caco-2)^^ × 10^−6 cm/s; FaSSIF solubility ([7]; 37°C): 4 µg/mL; FeSSIF solubility ([7]; 37°C): 13 µg/mL; Food Effect (graded symbols) ([4]; human, in vivo): ++; Observed AUC Ratios (Fed/Fasted) ([4]; human, in vivo): 2.01; Observed AUC(0-inf) Fasted ([4]; human, in vivo): 950 ng·h/mL; Observed AUC(0-inf) Fed ([4]; human, in vivo): 1910 ng·h/mL; Observed Cmax Fasted ([4]; human, in vivo): 84 ng/mL; Observed Cmax Fed ([4]; human, in vivo): 165 ng/mL; Observed Cmax Ratios (Fed/Fasted) ([4]; human, in vivo): 1.96
